# Data published in patent US11247973B2 (The University of Durham, priority 2016, dated 2022).
# “And” between values parts separate entries of the source, which are not always exact repeats. Equal values may be shown once. Read-outs that look alike come from different tables or passages of the source.
# Columns and labels:
# Assay type in all cases: cell-based
# [1] = Cell cytotoxicity CC50, HepG2 cells (CellTox Green); details: human, 48-hour incubation, multiple values = multiple test occasions, read-out: Tox CC50
# Description: (§1) HepG2 cells, in media supplemented with 10% fetal bovine serum (FBS), were seeded at […] into white walled 96 well plates and incubated at 37° C., 5% CO2. Twenty-four hours post seeding media was removed and replaced with media supplemented with 2% FBS and containing final compound concentrations equal to those tested in parallel virus plaque assays. Following a further 48-hour incubation cell cytotoxicity was determined using the CellTox™ Green (Promega) kit and […] read using an appropriate protocol on a GloMax® Explorer System (Promega). During analysis DMSO containing wells were used as a negative control and lysed cells as a positive control.
# HepG2 cells = experiment: as above; details: 48-hour incubation, multiple values = multiple test occasions, read-out: Tox CC50
# Description: as §1
# RSV = experiment: Cytopathic effect (CPE) assay; details: human respiratory syncytial virus, read-out: CPE IC50
# Source text: (§2) Cells were obtained from ATCC and the virus preparation was subjected to one round of centrifugation through a 40% (V/V) glycerol to remove any interferon produced from infected cells. Growth medium was Dulbecco's modified Eagle's medium (DMEM) with 10% (v/v) foetal calf serum (FCS), Viral maintainance medium was DMEM+2% (v/v) FCS.
# Cytopathic Effect (CPE) Assay—IC50:
# (§3) A549 cells and HeLa cells were used to seed a set of 96 well plates grown until 50% confluent, a 2 fold serial dilution of the compound was performed on each cell line with DMSO (only) as control starting with 100 μM of the compound. Medium used was DMEM+2% FCS (normal medium for viral growth).
# (§4) Cells were allowed to grow for 6-8 days to mimic a TCID50 assay after which cell viability was determined by adding Almar blur (similar to XT) and reading at 600 nm (excitation 540 nm).
# [2] = Cell cytotoxicity CC50 assay (A549 and HeLa cells); details: human, 6-8 days, DMEM+2% FCS
# Source text: as §2
# Cell Cytotoxicity—CC50 (Concentration at which 50% Cell Toxicity is Observed):
# as §3, §4
# RSV A2 VR-1540 = experiment: Second plaque reduction assay (HEp-2 cells); details: multiple values = multiple test occasions
# Source text: as §2, with “maintenance” for “maintainance”
# The RSV plaque reduction assay is an infectivity assay which allows quantification of the number of infectious units in a distinct foci of RSV infection. This is indicated by zones of viral antigen detected by specific antibody staining within a monolayer of otherwise healthy tissue culture cells. As each plaque originates from a single infectious virus particle an accurate calculation of the anti-viral effect can be obtained by counting plaques in the presence and absence of an anti-viral compound. HEp-2 cells (ATCC, CCL23) were passaged in flasks and seeded in 96-well plates in DMEM containing antibiotics and supplemented with 10% FBS. During inoculation and subsequent incubation, cells were cultured in DMEM containing 3% FBS. 100 plaque forming unit (PFU)/well of RSV (RSV A2 VR-1540) was mixed with ten serial dilutions of compound. Subsequently, 100 μL of the virus/compound mixtures was added to confluent HEp-2 cell monolayers. The cells and virus/compound mixtures were incubated at 35° C. in a humidified 5% CO2 incubator for 1 day.
# Cells were washed twice with PBS before adding 50% v/v EtOH/MeOH, and then stored at −20° C. On the day of the staining, fixative was first removed from the plates. Plates were washed 3× with PBS. A pre-titrated amount of the primary antibody was added in 60 μL PBS/2% milk powder, and plates incubated for 1 h at rt. The plates were washed 3× with PBS/0.05% Tween20 before addition of goat anti-mouse horse radish peroxidase in 60 μL PBS/2% milk powder, and incubated for 1 h at rt. Following three wash steps with PBS/0.05% Tween20, 60 μL ready-to-use TrueBlue was added and plates were incubated at rt for 10-15 min before adding MilliQ water. Plates were washed once with water, incubated for 30-60 min and after removal of water, air-dried in the dark.
# Plates were scanned and analyzed using the Immunospot S6 UV analyzer, which is equipped with BioSpot analysis software for counting immunostained plaques (virospots). Plaque counts were used to calculate % infection relative to the mean of the spot count (SC) in the virus control wells for RSV. IC50/IC90 values were calculated as 50% or 90% reduction in signal, respectively, by interpolation of inhibition curves fitted with a 4-parameter nonlinear regression with a variable slope in GraphPad 5.0 (Prism).
# [3] = human respiratory syncytial virus, HEp-2, 24 h, read-out: Plaque IC50, HEp-2 cells, RSV A2, 1 day
# [4] = read-out: Plaque IC50, HEp-2 cells, RSV A2, 1 day
SMILES,CC50 at 48 h [1],CC50 (HepG2 cells),IC50 (RSV A2 VR-1540; [3]),IC50 (RSV A2 VR-1540; [4]),also measured
"CC(C)[C@@H](Nc1c(F)c(F)nc(F)c1F)C(=O)N[C@H]1N=C(c2ccccc2)c2ccccc2NC1=O [Compound 8, (2R)-3-Methyl-N-[(3S)-2-oxo-5-phenyl-2,3-dihydro-1H-1,4-benzodiazepin-3-yl]-2-[(2,3,5,6-tetrafluoropyridin-4-yl)amino]butanamide]",> 25 µM,16.3 µM,–,–,–
"O=C(CNc1ccccc1)N[C@H]1N=C(c2ccccc2)c2ccccc2NC1=O [Compound 1, N-{(3S)-2-oxo-5-phenyl-2,3-dihydro-1H-1,4-benzodiazepin-3-yl](phenylamino)acetamide]",–,–,–,–,"IC50 (RSV; A549 cells and HeLa cells, 6-8 days, DMEM+2% FCS): 2.5 µM; CC50 [2]: 25 µM"
"CC(C)[C@H](Nc1c(F)c(F)nc(F)c1F)C(=O)N[C@H]1N=C(c2ccccc2)c2ccccc2NC1=O [Compound 7, (2S)-3-Methyl-N-[(3S)-2-oxo-5-phenyl-2,3-dihydro-1H-1,4-benzodiazepin-3-yl]-2-[(2,3,5,6-tetrafluoropyridin-4-yl)amino]butanamide]",16 µM,> 25 µM,5.18 µM,8.68 µM and 10 µM,–
"CCOc1nc(F)c(F)c(NCC(=O)N[C@H]2N=C(c3ccccc3)c3ccccc3NC2=O)c1F [Compound 4, 2-[(2-ethoxy-3,5,6-trifluoropyridin-4-yl)amino]-N-{(3S)-2-oxo-5-phenyl-2,3-dihydro-1H-1,4-benzodiazepin-3-yl]acetamide]",–,–,–,–,IC50 (RSV): 2.5 µM; CC50 [2]: > 100 µM
"C[C@H](Nc1c(F)c(F)nc(F)c1F)C(=O)N[C@H]1N=C(c2ccccc2)c2ccccc2NC1=O [Compound 9, (2S)-N-[(3S)-2-oxo-5-phenyl-1,3-dihydro-1,4-benzodiazepin-3-yl]-2-[(2,3,5,6-tetrafluoropyridin-4-yl)amino]propanamide]",> 25 µM,–,5.22 µM,3.76 µM,–
"O=C(CNc1cc(Cl)ncn1)N[C@H]1N=C(c2ccccc2)c2ccccc2NC1=O [Compound 18, 2-[(6-Chloropyrimidin-4-yl)amino]-N-[(3S)-2-oxo-5-phenyl-2,3-dihydro-1H-1,4-benzodiazepin-3-yl]acetamide]",> 25 µM,–,4.93 µM,9.33 µM,–
O=C(N[C@H]1N=C(c2ccccc2)c2ccccc2NC1=O)[C@H](Cc1ccccc1)Nc1c(F)c(F)nc(F)c1F [Compound 11],–,> 25 µM,–,–,–
"C[C@@H](Nc1c(F)c(F)nc(F)c1F)C(=O)N[C@H]1N=C(c2ccccc2)c2ccccc2NC1=O [Compound 10, (2R)-N-[(3S)-2-oxo-5-phenyl-1,3-dihydro-1,4-benzodiazepin-3-yl]-2-[(2,3,5,6-tetrafluoropyridin-4-yl)amino]propanamide]",> 25 µM,–,3.38 µM,1.79 µM,–
"O=C1Nc2ccccc2C(c2ccccc2)=N[C@@H]1NC(=O)[C@H]1CCCN1c1c(F)c(F)nc(F)c1F [Compound 6, N(2R)-N-[(3S)-2-oxo-5-phenyl-2,3-dihydro-1H-1,4-benzomazepin-3-yl]-1-(2,3,5,6-tetrafluoropyridin-4-yl)pyrrolidine-2-carboxamide]",–,> 25 µM,–,–,"IC50 (RSV A2 VR-1540; HEp-2 cells, RSV A2, 1 day, read-out: Plaque IC50): 4.39 µM and 8.33 µM"
"O=C(CNc1nc(F)c(F)c(N2CCOCC2)c1F)N[C@H]1N=C(c2ccccc2)c2ccccc2NC1=O [Compound 14, N-[(3S)-2-oxo-5-phenyl-2,3-dihydro-1H-1,4-benzodiazepin-3-yl]-2-{[3,5,6-trifluoro-4-(morpholin-4-yl)pyridin-2-yl]amino}acetamide]",> 25 µM,–,–,–,–
